Measurements from US12365655B2, “Compounds” (CTXT PTY LTD, priority 2018, dated 2025).

Legend:
HBO-KAT7 = HBO-KAT7 (Homo sapiens, UniProt O95251); test: Acetyltransferase biochemical assay (AlphaScreen), KAT7
TIP60-KAT5 = TIP60-KAT5 (Homo sapiens, UniProt Q92993); test: Acetyltransferase biochemical assay (AlphaScreen), KAT5
MOZ-KAT6A = MOZ-KAT6A (Homo sapiens, UniProt Q92794, A567V); test: Acetyltransferase biochemical assay (AlphaScreen), KAT6A
Sequence of MOZ-KAT6A (Q92794 with tags, fused parts or gaps A567V): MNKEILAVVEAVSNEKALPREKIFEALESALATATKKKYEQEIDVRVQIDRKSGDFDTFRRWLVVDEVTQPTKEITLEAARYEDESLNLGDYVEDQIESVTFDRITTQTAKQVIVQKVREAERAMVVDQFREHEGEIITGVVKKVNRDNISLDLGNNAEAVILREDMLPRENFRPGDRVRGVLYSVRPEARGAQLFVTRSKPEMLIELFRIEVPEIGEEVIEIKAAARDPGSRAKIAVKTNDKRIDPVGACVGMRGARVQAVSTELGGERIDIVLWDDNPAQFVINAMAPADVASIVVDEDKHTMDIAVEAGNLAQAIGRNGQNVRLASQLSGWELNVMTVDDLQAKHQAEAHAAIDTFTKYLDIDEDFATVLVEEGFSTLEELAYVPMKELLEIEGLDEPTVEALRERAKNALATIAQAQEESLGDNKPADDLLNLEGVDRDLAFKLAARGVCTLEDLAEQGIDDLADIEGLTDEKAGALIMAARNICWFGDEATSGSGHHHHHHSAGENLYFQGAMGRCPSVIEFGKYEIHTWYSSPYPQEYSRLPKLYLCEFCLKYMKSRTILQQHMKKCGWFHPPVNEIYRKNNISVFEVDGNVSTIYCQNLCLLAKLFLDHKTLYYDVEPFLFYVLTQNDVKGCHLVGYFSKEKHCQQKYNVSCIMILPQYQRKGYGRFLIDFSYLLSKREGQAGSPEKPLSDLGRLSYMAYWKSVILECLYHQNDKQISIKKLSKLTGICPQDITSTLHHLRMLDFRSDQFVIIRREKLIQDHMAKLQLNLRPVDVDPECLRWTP

Sequence of TIP60-KAT5 (Q92993 with tags, fused parts or gaps isoform Q92993-2): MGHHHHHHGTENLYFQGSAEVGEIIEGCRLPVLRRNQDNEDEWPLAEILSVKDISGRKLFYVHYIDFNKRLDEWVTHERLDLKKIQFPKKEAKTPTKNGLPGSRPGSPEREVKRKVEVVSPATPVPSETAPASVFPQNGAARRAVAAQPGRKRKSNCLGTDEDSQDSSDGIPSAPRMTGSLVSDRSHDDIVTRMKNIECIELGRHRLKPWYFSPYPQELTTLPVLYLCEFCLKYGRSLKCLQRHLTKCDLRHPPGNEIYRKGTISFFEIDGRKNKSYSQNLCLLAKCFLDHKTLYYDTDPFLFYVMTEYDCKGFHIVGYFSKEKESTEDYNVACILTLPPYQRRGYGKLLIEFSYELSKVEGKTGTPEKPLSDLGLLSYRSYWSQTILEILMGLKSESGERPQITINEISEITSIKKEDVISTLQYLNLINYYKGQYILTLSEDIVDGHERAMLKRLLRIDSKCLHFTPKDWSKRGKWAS
Sequence of HBO-KAT7 (O95251 with tags, fused parts or gaps): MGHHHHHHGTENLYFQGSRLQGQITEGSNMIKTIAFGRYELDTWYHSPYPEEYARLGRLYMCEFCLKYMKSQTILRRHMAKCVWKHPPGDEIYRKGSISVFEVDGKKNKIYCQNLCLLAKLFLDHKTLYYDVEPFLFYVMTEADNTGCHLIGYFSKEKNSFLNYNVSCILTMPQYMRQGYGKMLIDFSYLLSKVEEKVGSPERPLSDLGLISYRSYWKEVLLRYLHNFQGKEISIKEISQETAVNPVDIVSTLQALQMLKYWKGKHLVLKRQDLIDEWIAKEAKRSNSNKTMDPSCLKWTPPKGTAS

IC50 (HBO-KAT7) [µM] | IC50 (TIP60-KAT5) [µM] | IC50 (MOZ-KAT6A) [µM] | SMILES
8.42 | 41 | 26.8 | O=S(=O)(Nc1noc2cccc(Cl)c12)c1ccc(OCc2ccccc2)cc1 [Example 9, 4-(benzyloxy)-N-(4-chlorobenzo[d]isoxazol-3-yl)benzenesulfonamide]
54.1 | 93.7 | 17.5 | O=S(=O)(Nc1noc2cccc(Cl)c12)c1cc(OCC(F)(F)F)ccc1OCC(F)(F)F [Example 10, N-(4-chlorobenzo [d]isoxazol-3-yl)-2,5-bis(2,2,2-trifluoroethoxy) benzenesulfonamide]
49.9 | > 125 | > 125 | COC(=O)c1ccccc1S(=O)(=O)Nc1noc2cccc(Cl)c12 [Example 12, methyl 2-(N-(4-chlorobenzo[d]isoxazol-3-yl)sulfamoyl)benzoate]
63.8 | 120 | 63.9 | Cn1c(=O)oc2cc(S(=O)(=O)Nc3noc4cccc(Cl)c34)ccc21 [Example 13, N-(4-chlorobenzo [d]isoxazol-3-yl)-3-methyl-2-oxo-2,3-dihydrobenzo[d]oxazole-6-sulfonamide]
15.2 | > 125 | 45 | O=S(=O)(Nc1noc2cccc(Cl)c12)c1ccc2c(c1)OCCCO2 [Example 14, N-(4-chlorobenzo [d]isoxazol-3-yl)-3,4-dihydro-2H-benzo[b][1,4]dioxepine-7-sulfonamide]
1.46 | 7.29 | 1.91 | O=S(=O)(Nc1noc2cccc(Cl)c12)c1cccc2scnc12 [Example 15, N-(4-chlorobenzo [d]isoxazol-3-yl)benzo [d]thiazole-4-sulfonamide]
9.63 | 30.2 | 15.1 | O=S(=O)(Nc1noc2cccc(Cl)c12)c1cccc2nonc12 [Example 16, N-(4-chlorobenzo [d]isoxazol-3-yl)benzo[c][1,2,5]oxadiazole-4-sulfonamide]

Continued, molecule first:

SMILES | IC50 (HBO-KAT7) [µM] | IC50 (TIP60-KAT5) [µM] | IC50 (MOZ-KAT6A) [µM]
COCc1ccccc1S(=O)(=O)Nc1noc2cccc(Cl)c12 [Example 1, N-(4-chlorobenzo [d]isoxazol-3-yl)-2-(methoxymethyl) benzenesulfonamide] | 53.9 | > 125 | 91.4
COCc1cccc(S(=O)(=O)Nc2noc3cccc(Cl)c23)c1 [Example 2, N-(4-chlorobenzo [d]isoxazol-3-yl)-3-(methoxymethyl) benzenesulfonamide] | 15.5 | > 125 | 94.6
COc1c(S(=O)(=O)Nc2noc3cccc(Cl)c23)ccc(Cl)c1Cl [Example 3, 3,4-dichloro-N-(4-chlorobenzo[d]isoxazol-3-yl)-2-methoxy benzenesulfonamide] | 23.2 | 65.1 | 23.8
O=S(=O)(Nc1noc2cccc(Cl)c12)c1ccccc1Oc1ccccc1 [Example 4, N-(4-chlorobenzo [d]isoxazol-3-yl)-2-phenoxybenzene sulfonamide] | 5.17 | 35.2 | 6.22
COc1ccc(F)cc1S(=O)(=O)Nc1noc2cccc(Cl)c12 [Example 5, N-(4-chlorobenzo [d]isoxazol-3-yl)-5-fluoro-2-methoxybenzene sulfonamide] | 6.01 | 114 | 31.3
Cn1nc2cccc(S(=O)(=O)Nc3noc4cccc(Cl)c34)c2n1 [Example 6, N-(4-chlorobenzo [d]isoxazol-3-yl)-2-methyl-2H-benzo[d][1,2,3]triazole-4-sulfonamide] | 6.28 | 94.9 | 30.2
O=S(=O)(Nc1noc2cccc(Cl)c12)c1cccc2nsnc12 [Example 7, N-(4-chlorobenzo [d]isoxazol-3-yl)benzo[c][1,2,5]thiadiazole-4-sulfonamide] | 14.2 | > 125 | 62.7
O=S(=O)(Nc1noc2cccc(Cl)c12)c1ccc2nc(O)oc2c1 [Example 8, N-(4-chlorobenzo [d]isoxazol-3-yl)-2-hydroxybenzo[d]oxazole-6-sulfonamide] | > 125 | > 125 | 113
